What all share (assay): NCI-60 cell line screen, 48 h
The test system of assay [1] is KM12 colon.
Assay [2] relates to SK-MEL-28 melanoma.
For assay [3], the system named is RXF 393 renal.
Assay [4] has as its system HOP-62 NSCLC.
The test system of assay [5] is IGROV1 ovarian.
For assay [6], the system named is SR leukemia.
Assay [7] deals with HCT-15 colon.
Assay [8] has as its system A549 NSCLC.
Assay [9] concerns BT-549 breast.
The test system of assay [10] is OVCAR-4 ovarian.

The values below come from PubChem BioAssay (NCI).

Values joined by “and” are separate entries in the source; they are usually repeats but may differ in a detail not shown here. Identical values can stand only once.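 1) Cells in 96-well plates. 2) Compound, 48 h, 5 concentrations. 3) Linear interpolation between surrounding doses. 4) Unreached endpoint = highest concentration. Here, GI50 denotes the concentration required for 50% inhibition of growth. TGI marks complete inhibition of growth.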

For the compound `O=[N+]([O-])c1ccc(Sc2cccc[n+]2[O-])c2nonc12`, the GI50 in [1] was 4.02 µM; in assay [2], 2.47 µM; in assay [3], 2.12 µM; in assay [4], 28 µM; in [5], 3.21 µM; in assay [6], 0.703 µM. Moreover, the GI50 in [7] was 3.03 µM; in [8], 5.61 µM; in assay [9], 12.7 µM; in [10], 3.61 µM. The TGI was 14.4 µM in assay [1]; 6.31 µM in [2]; 6.32 µM in [3]; above 56.4 µM in [4]; 14.5 µM in assay [5]; above 100 µM in assay [6]. The TGI in assay [7] is 14.7 µM; in assay [8], above 57.2 µM; in [9] it was 25.8 µM; in assay [10], 13.6 µM.
As for `O=C(O)/C=C/c1c2ccc(=O)c(O)c-2oc2c(O)c(O)ccc12`, the TGI is above 100 µM in assay [1]; above 100 µM in [2]; above 100 µM in [3]; 61.1 µM in assay [4]; above 100 µM in assay [5]; above 100 µM in assay [6]. The TGI in assay [7], in assay [8], in assay [9] and in assay [10] was above 100 µM each time.
`N#CC1=C(N)NC(=O)C(C#N)C12Nc1ccccc1S2` (stereo not drawn): the GI50 in [1] was 82 µM; in assay [2], above 100 µM; in [3], 20.4 µM; in assay [4] it was above 100 µM; in assay [5], 18 µM; in [6], 52.4 µM. The GI50 in assay [7] was above 100 µM; in assay [8] it was above 100 µM; in assay [9], 69.9 µM; in [10], above 100 µM. In addition, the TGI in [1] was above 100 µM; in assay [2], above 100 µM; in [3] it was above 100 µM; in [4], above 100 µM; in assay [5], 88.4 µM; in assay [6], above 100 µM. Also, the TGI in assay [7], in [8], in assay [9] and in [10] was above 100 µM throughout.
With `COc1ccc(-n2nc(C)c3c(Nc4ccc(NC(=O)Nc5cccc(C(F)(F)F)c5)cc4)ncnc32)cc1`, the GI50 is 1.63 µM in [1]; 1.85 µM in assay [2]; 0.846 µM in [3]; 1.73 µM in assay [4]; 2 µM in assay [5]; 2.54 µM in assay [6]. The GI50 is 1.46 µM in [7], 1.65 µM in assay [8], 1.97 µM in assay [9] and 2.1 µM in [10]. In addition, the TGI in assay [1] came to 3.76 µM; in [2], 4.76 µM; in [3] it was 2.34 µM; in assay [4], 3.45 µM; in [5], 4.18 µM; in assay [6] it was 9.38 µM. Moreover, the TGI in assay [7] stood at 3.27 µM; in [8] it was 3.45 µM; in assay [9] it was 5.32 µM; in assay [10], 5.27 µM.
For the compound `CN(C)Cc1ccc(NC(=O)c2cncc(C#Cc3cnc(N)c4ncccc34)c2)cc1C(F)(F)F`, the GI50 in assay [1] was 0.0759 µM; in [2], 0.161 µM; in [3] it was 1.31 µM; in [4] it was 1.57 µM; in assay [5] it was 1.47 µM; in assay [6], 1.43 µM. For the same compound, the GI50 in [7] was 1.5 µM; in assay [8], 1.67 µM; in assay [9], 2.21 µM; in [10] it was 1.16 µM. The TGI in [1] stood at 1.4 µM; in assay [2], 1.43 µM; in [3], 2.88 µM; in assay [4] it was 3.48 µM; in [5], 2.97 µM; in assay [6] it was 3.44 µM. The TGI in assay [7] turned out to be 3.1 µM; in assay [8] it was 3.41 µM; in [9], 4.36 µM; in [10] it was 2.56 µM.
On to `CN1CCN(C2=C(Cl)C(=O)c3ccccc3C2=O)CC1`, for which the GI50 in assay [1] is 5.27 µM; in assay [2], 1.75 µM; in assay [3], 1.59 µM; in assay [4], 2.04 µM; in [5], 1.88 µM; in [6], 3.42 µM. Moreover, the GI50 in assay [7] is 1.77 µM; in assay [8], 3.42 µM; in assay [9], 1.97 µM; in assay [10], 1.59 µM. The TGI in [1] is 16.7 µM; in assay [2], 3.18 µM; in [3] it was 2.95 µM; in [4], 5.12 µM; in [5], 4.32 µM; in assay [6], above 27.3 µM. Besides, the TGI in assay [7] was determined as 3.41 µM; in [8] it was 11.2 µM; in assay [9], 4.75 µM; in assay [10], 2.95 µM.
Turning to `CCC/C=C/C=C/C(=O)OC1/C(=C/C(=O)OC)CC2CC(C(C)O)OC(=O)CC(O)CC3CC(OC(C)=O)C(C)(C)C(O)(CC4C/C(=C/C(=O)OC)CC(/C=C/C(C)(C)C1(O)O2)O4)O3` (stereo not drawn), the GI50 is > 10.9 µM and 6.75 µM and > 12.5 µM in assay [1]; 8.54 µM and > 12.5 µM in assay [2]; 10.6 µM and 5.25 µM and > 12.5 µM in [3]; 10.9 µM and > 12.5 µM in assay [4]; > 10.9 µM and 5.09 µM and > 12.5 µM in [5]; 10.8 µM in assay [6]. The GI50 in assay [7] was 5.15 µM and 10.8 µM and > 12.5 µM; in assay [8], 2.58 µM and 5.95 µM and > 12.5 µM; in assay [9], above 12.5 µM; in assay [10], > 6.88 µM and 3.48 µM and > 12.5 µM. Moreover, the TGI in [1] was > 10.9 µM and 9.07 µM and > 12.5 µM; in [2] it was > 10.9 µM and 11 µM and > 12.5 µM; in assay [3], 10.9 µM and > 12.5 µM; in assay [4], 11 µM and > 12.5 µM; in assay [5] it was > 10.9 µM and 6.06 µM and > 12.5 µM; in [6] it was 11 µM and > 12.5 µM. Moreover, the TGI in assay [7] is 7.35 µM and 11 µM and > 12.5 µM; in [8] it was 8.17 µM and 11 µM and > 12.5 µM; in [9] it was 11 µM and > 12.5 µM; in [10], > 6.88 µM and 10.1 µM and > 12.5 µM.
In the case of `COc1ccc(-c2nc(NC(=O)CS(=O)(=O)c3ccc(F)cc3)sc2C)cc1`, the GI50 was 14.6 µM in assay [1]; 20.1 µM in assay [2]; 15.6 µM in assay [3]; 22.4 µM in assay [4]; 28.2 µM in assay [5]; 4.32 µM in assay [6]. Besides, the results for the GI50 in [7], in [9] and in [10] were 12.5 µM, 15.8 µM and 31 µM, respectively. Also, the TGI was 61 µM in [1]; 62 µM in [2]; 49.7 µM in [3]; 87.1 µM in [4]; above 100 µM in assay [5]; 46.1 µM in assay [6]. In addition, the TGI in assay [7] is above 100 µM; in [9], 40.3 µM; in [10], above 100 µM.
